Activity calls are given as the source filed them. The calls are words filed in the database; no cut-off is given here.
Key:
[1] = tested on: HeLa; experiment: Photo-antiproliferative activity against human HeLa cells under dark condition; type: functional, cell-based
[2] = tested on: Zone of skin; experiment: Phototoxicity in depilated guinea pig skin assessed as formation of erythema; type: tissue-based, Cavia porcellus
[3] = tested on: HeLa; experiment: Photo-antiproliferative activity against human HeLa cells exposed to 365 nm, 0.793 Jcm'-2 UVA light; type: functional, cell-based; conditions: light or radiation study
[4] = tested on: Nucleic Acid; experiment: Binding affinity to DNA assessed as intercalation between base pairs by linear flow dichroism spectroscopy; type: nucleic-acid assay

## COc1c2occc2cc2ccc(=O)oc12 [METHOXSALEN]
[1]
  IC50: > 20 µM
[2]
  Activity: Toxic

## CN(C)CCCOc1c2oc(=O)ccc2cc2c1oc1nnccc12
[1]
  IC50: 13.5 µM
[3]
  IC50: 2.9 µM
[4]
  Activity: Active
